Calls of active or inactive are those of the source.
How the values were obtained:
Cytochrome P450 3A4 = Cytochrome P450 3A4 (Homo sapiens, UniProt P08684); settings: Potency;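 also: confirmatory qHTS run detecting inhibitors and substrates of CYP3A4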
[1] = A cytotoxicity screen of small molecule inhibitors of the PhoP region in Salmonella typhi identified in the primary screen. [Related pubchem assays: 1850, 1864, 1985 ]; assay type: functional
[2] = inhibition of ADAM10 peptide cleavage – biochemical, FRET peptide substrate, recombinant human ADAM10, selectivity assay for ADAM17 exosite inhibitor project, dose response (AID 743259);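 also: ADAM10 enzyme cleaving a FRET peptide substrate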
[3] = target: Disintegrin and metalloproteinase domain-containing protein 17 (Homo sapiens, UniProt P78536); test: exosite inhibitors of ADAM17, dose response, biochemical (AID 743260)
Chain of Disintegrin and metalloproteinase domain-containing protein 17 (P78536 whole entry, the tested form may be a part): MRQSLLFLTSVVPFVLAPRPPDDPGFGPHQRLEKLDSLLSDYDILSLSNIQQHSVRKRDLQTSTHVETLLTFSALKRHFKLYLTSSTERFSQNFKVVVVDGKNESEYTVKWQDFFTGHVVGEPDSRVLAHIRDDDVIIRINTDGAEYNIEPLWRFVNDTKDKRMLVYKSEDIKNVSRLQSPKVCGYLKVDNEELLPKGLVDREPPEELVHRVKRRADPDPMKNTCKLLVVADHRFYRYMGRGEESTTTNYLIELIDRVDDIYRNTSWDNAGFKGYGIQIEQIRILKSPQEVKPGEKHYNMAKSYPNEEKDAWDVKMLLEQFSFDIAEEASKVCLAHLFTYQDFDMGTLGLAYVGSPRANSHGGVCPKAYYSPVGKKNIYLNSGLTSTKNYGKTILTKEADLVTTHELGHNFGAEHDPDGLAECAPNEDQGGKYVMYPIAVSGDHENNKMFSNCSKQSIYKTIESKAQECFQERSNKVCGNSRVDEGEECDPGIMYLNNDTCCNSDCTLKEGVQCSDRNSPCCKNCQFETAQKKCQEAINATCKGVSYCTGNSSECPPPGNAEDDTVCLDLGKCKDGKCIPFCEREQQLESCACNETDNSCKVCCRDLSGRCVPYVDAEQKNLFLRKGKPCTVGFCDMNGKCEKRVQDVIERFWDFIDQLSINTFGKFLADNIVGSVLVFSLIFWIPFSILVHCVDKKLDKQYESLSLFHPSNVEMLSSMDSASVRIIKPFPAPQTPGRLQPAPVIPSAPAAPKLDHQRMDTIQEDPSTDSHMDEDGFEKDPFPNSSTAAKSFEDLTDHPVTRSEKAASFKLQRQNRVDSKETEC

[4] = viability of uninfected HEp-2 cells – cell-based, HTS, cytotoxicity control for RSV inhibitor project, dose response (AID 2410); assay type: functional; settings: human respiratory syncytial virus
[5] = M. tuberculosis H37Rv growth inhibitors, H37Rv strain (AID 1626); assay type: functional
Protein skinhead-1 = target: T1, Protein skinhead-1 (Caenorhabditis elegans, UniProt P34707); assay type: functional
T1 sequence (P34707 whole entry): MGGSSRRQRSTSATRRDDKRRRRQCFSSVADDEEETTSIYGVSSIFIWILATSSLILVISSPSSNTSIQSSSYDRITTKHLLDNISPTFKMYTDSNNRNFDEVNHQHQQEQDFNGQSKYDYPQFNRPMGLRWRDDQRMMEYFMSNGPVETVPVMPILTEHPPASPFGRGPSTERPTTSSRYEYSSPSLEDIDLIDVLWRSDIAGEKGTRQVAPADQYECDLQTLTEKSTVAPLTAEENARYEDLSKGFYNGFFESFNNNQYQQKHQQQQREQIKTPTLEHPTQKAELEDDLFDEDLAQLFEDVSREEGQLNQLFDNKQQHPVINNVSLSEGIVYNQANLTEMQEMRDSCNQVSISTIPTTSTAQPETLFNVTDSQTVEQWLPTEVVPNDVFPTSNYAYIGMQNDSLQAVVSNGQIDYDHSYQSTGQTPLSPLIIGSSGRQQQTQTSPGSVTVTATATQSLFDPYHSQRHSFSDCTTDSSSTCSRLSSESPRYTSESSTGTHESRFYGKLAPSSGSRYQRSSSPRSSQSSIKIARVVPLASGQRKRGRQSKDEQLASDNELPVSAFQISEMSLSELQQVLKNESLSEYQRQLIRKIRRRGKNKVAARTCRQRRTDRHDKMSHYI

[6] = Luminescence Cell-Based Dose Retest to Confirm Inhibitors of Cancer Stem Cells. [Related pubchem assays (depositor defined):AID2717, AID2721]; assay type: functional; settings: Homo sapiens
Vero = test: cells; assay type: functional; settings: Chlorocebus sabaeus
BJ [7] = test: growth inhibition of engineered Ras-driven BJ cells – cell-based, alamar blue fluorescence, cherrypicked samples, dose response (AID 2631); assay type: functional; settings: Homo sapiens;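 also: confirmatory dose-response assay in RAS-dependent BJ fibroblasts engineered with TERT, LT and ST, with cytotoxicity read by fluorescence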
BJ [8] = test: BJ-TERT-LT-ST fibroblast viability loss – cell-based, RAS-independent, luminescence, dose response (AID 1935); assay type: functional; settings: Homo sapiens;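 also: BJ fibroblasts immortalized with TERT plus LT and ST oncogenes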
[9] = DRD fibroblast viability loss – cell-based, non-viral oncogenic, luminescence, dose response (AID 1934); assay type: functional; settings: Homo sapiens
BJ [10] = test: BJ-TERT fibroblast viability loss – cell-based, RAS-independent, luminescence, dose response (AID 1933); assay type: functional; settings: Homo sapiens
BJ [11] = test: cells; assay type: functional, cell-based; settings: Homo sapiens
Estrogen receptor beta = Estrogen receptor beta (Homo sapiens, UniProt Q92731); test: blockers of SRC-3 recruitment to ERβ – biochemical, ELISA, streptavidin-HRP readout, orthogonal assay, confirmation (AID 1060)
Chain of Estrogen receptor beta (Q92731 whole entry): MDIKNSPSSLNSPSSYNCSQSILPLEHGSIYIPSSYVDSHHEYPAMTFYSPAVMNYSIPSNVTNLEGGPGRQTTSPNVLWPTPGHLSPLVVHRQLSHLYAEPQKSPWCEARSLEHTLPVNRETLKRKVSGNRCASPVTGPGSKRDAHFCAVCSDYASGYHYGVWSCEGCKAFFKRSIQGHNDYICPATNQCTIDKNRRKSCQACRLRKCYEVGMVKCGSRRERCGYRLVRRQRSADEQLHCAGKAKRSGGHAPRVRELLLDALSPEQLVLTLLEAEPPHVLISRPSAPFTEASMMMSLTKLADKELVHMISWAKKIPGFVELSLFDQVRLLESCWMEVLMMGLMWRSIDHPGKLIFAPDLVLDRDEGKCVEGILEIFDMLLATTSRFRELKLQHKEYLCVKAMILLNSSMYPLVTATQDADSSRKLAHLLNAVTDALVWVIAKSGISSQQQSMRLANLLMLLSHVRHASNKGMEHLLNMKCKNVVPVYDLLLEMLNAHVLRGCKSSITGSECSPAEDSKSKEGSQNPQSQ

[12] = Trypanosoma cruzi growth suppression in host cells – NIH3T3 host cells, beta-gal luminescence, confirmation (AID 2044); assay type: functional, cell-based;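 also: intracellular parasites grown in NIH/3T3 mouse fibroblasts as host cells; luminescent beta-galactosidase reporter signal from transgenic T. cruzi replicating inside host cells; inhibitors lower the luminescence signal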
[13] = NIH3T3 cell viability loss – ATP luminescence, mouse fibroblasts, counter-screen, dose response (AID 2010); assay type: functional, cell-based;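 also: cells exposed to compound for about 90 hours before reading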
Prothrombin = Prothrombin (Homo sapiens, UniProt P00734); test: Thrombin 1536 HTS Dose Response Confirmation. [Related pubchem assays: 1046 (Thrombin 1536 HTS; hits were confirmed in this assay)]; assay type: functional
Streptokinase A = target: T2, Streptokinase A (Streptococcus pyogenes serotype M1, UniProt P10520); test: viability-normalized secreted streptokinase activity reduction – plasminogen activation absorbance, OD405, dose response (AID 1914); assay type: functional, Streptococcus pyogenes M1 GAS;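 also: secreted streptokinase activity via plasminogen activation per viability signal from cell pellet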
T2 sequence (P10520 whole entry): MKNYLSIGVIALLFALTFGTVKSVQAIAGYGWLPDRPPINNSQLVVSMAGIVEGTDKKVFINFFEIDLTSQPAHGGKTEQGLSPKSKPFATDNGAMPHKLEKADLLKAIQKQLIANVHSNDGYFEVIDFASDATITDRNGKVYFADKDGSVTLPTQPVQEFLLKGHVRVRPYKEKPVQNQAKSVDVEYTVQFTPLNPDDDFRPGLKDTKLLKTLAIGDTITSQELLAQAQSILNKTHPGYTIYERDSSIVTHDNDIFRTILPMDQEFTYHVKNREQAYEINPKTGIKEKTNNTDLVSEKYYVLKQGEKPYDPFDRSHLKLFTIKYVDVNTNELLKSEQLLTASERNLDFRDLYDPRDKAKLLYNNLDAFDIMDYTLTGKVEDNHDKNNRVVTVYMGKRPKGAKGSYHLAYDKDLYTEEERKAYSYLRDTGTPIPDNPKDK

[14] = target: T3, DNA repair protein RAD52 homolog (Homo sapiens, UniProt P43351); assay type: functional, biochemical
T3 sequence (P43351 whole entry): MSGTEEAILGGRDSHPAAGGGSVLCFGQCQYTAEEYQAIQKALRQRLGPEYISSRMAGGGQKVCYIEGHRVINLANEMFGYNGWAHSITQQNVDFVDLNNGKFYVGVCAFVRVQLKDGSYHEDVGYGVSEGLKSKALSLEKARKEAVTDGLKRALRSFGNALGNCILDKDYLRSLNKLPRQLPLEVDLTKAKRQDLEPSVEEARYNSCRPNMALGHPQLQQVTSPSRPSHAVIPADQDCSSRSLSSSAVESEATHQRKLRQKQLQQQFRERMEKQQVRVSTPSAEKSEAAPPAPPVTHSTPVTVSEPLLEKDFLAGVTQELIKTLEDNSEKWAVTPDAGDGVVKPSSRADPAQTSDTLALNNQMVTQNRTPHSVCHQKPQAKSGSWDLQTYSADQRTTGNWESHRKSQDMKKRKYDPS

Streptococcus = test: GAS UMAA2166 growth inhibition – luminescence, BacTiterGlo, counter-screen for streptokinase expression inhibitor project, dose response (AID 1915); assay type: functional, organism-based;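 also: potency for reduction of bacterial viability or growth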
[15] = system: Streptococcus sp. 'group A'; test: Streptococcus pyogenes SK(-)GAS viability under kanamycin – luminescence, BacTiterGlo, confirmation, counter-screen for streptokinase expression inhibitor project, dose response (AID 1900); assay type: functional, organism-based
[16] = target: T4, Heat shock factor protein 1 (Mus musculus, UniProt P38532); test: decrease of HSF1-responsive luciferase luminescence – cell-based, NIH3T3, dose retest, confirmation (AID 2382); assay type: functional;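 also: NIH3T3 fibroblasts with HSF1-driven luciferase reporter stressed by proteasome inhibitor MG132; luminescence from HSF1-driven luciferase expression after 8 hours of MG132 stress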
T4 sequence (P38532 whole entry): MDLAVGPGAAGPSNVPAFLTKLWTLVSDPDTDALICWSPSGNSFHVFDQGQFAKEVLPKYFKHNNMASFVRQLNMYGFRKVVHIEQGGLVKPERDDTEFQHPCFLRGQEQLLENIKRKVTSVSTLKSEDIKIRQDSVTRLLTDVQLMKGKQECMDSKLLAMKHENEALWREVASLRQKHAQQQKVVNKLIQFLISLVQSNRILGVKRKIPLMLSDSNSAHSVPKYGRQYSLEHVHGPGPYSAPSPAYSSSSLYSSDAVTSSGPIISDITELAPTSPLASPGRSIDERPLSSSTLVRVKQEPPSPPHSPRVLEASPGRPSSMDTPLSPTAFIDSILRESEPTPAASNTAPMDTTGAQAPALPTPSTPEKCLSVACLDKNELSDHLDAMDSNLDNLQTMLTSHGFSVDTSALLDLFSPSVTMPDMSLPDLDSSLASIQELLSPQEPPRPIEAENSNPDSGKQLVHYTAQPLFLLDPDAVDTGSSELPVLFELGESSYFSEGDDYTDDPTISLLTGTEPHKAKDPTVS

Coagulation factor XII = target: T5, Coagulation factor XII (Homo sapiens, UniProt P00748); assay type: functional;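 also: activated factor XIIa alpha cleaving a fluorogenic AMC peptide substrate; inhibitor potency from loss of enzyme activity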
T5 sequence (P00748 whole entry): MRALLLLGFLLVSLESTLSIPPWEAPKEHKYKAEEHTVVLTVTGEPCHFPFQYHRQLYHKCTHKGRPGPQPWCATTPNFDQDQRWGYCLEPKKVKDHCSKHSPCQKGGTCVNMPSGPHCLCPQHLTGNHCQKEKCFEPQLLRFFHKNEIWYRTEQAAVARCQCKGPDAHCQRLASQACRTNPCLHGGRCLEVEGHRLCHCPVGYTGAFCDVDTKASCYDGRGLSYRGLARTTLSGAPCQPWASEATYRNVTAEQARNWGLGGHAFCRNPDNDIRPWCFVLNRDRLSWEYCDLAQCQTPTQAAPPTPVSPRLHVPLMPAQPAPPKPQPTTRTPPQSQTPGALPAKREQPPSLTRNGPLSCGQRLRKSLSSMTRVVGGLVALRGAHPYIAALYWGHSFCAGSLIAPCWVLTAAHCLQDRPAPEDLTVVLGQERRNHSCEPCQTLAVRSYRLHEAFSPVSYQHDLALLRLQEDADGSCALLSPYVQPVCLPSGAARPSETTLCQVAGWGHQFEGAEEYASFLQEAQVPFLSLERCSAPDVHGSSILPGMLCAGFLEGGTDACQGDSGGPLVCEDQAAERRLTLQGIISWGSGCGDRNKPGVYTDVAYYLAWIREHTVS

[17] = growth inhibition of PfATP4-mutant resistant parasites – NITD609-resistant line, SYBR Green, dry powder, dose response (AID 1159571); assay type: functional, cell-based;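 also: parasites synchronized at ring stage by sorbitol before testing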
[18] = growth inhibition of yeast DHODH-expressing 3D7 parasites – SYBR Green, dry powder samples, dose response (AID 1159570); assay type: functional, cell-based;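 also: parasite growth measured after 72 hours of compound exposure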
[19] = P. falciparum Dd2 growth inhibitors, dose response, SYBR Green, cherry-picked samples (AID 1159567); assay type: functional, cell-based
[20] = Dd2 malaria parasite growth inhibition potency – SYBR Green, dry powder samples, dose response (AID 1159566); assay type: functional, cell-based;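 also: potency for growth inhibition with lower SYBR green DNA signal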

Chain of Cytochrome P450 3A4 (P08684 whole entry): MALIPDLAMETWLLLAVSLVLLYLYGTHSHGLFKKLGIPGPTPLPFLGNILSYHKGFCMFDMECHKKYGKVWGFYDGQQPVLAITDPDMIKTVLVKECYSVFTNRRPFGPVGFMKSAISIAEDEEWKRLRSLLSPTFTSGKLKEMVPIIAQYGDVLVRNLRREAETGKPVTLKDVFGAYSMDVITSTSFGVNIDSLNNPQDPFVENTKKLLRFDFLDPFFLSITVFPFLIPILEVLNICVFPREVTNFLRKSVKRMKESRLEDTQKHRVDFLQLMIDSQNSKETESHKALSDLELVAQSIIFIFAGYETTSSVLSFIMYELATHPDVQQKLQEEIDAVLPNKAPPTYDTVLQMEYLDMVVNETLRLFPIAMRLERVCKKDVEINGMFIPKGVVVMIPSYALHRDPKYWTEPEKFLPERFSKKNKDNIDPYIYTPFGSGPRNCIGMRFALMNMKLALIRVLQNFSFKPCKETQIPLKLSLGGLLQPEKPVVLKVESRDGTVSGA

Cc1cc(=O)cc2oc3cc(N)c(-c4c(C)cc(O)cc4O)c(C)c3nc1-2
AC50 (Cytochrome P450 3A4): 39.8 µM (inconclusive)

Cc1cccc(N(C(=O)CCC(=O)Nc2ccccn2)C(C(=O)NC(C)C)c2ccc(O)cc2)c1 (centres undefined)
EC50 [1]: > 50 µM (active)

Cc1cc(=O)oc2c(CN(C)Cc3ccccc3)c(O)ccc12
EC50 [1]: > 50 µM (active)

Cc1cc(Oc2ccccc2)nc(SCC(=O)Nc2ccc(Cl)c(Cl)c2)n1
IC50 [2]: 10.4 µM (inactive)
IC50 [3]: > 69.5 µM (inactive)

COC(=O)[C@@H]1C[C@@H]2CC[C@@H](O)C[C@@H]2N1Cc1ccc(C(F)(F)F)cc1
AC50 (Cytochrome P450 3A4): 10 µM (inconclusive)

CC(C)OC(=O)c1ccc(NC(=O)c2cncc(Br)c2)cc1
CC50 [4]: > 50 µM (active)
IC50 [5]: > 100 µM (active)

COc1cc(OC)cc(-c2c[nH]nc2N)c1
IC50 [2]: > 69.5 µM (inactive)

COc1cc(OC)cc(-c2cn[nH]c2N)c1
IC50 [3]: > 69.5 µM (inactive)

COc1ccccc1C1CN(c2ccc(F)cc2F)N=C1c1cccs1 (centres undefined)
EC50 [1]: > 50 µM (active)
IC50 (Protein skinhead-1): > 100 µM (inactive)

CCCN1C/C(=C/c2ccc3c(c2)OCO3)C(=O)/C(=C/c2ccc3c(c2)OCO3)C1
AC50 [6]: 0.766 µM (active)
IC50 [2]: > 69.5 µM (inactive)
IC50 [3]: 19.6 µM (inactive)
CC50 (Vero): 9.59 µM (active)
EC50 (BJ [7]): 582 nM (inconclusive)
EC50 (BJ [8]): 2.94 µM (inconclusive)
EC50 [9]: 4.99 µM (active)
EC50 (BJ [10]): 4.04 µM (inconclusive)
EC50 (BJ [11]): 14.9 µM (inconclusive)

CC1(C)C(=O)Nc2ccccc2N1C(=O)COc1ccc(S(=O)(=O)N2CCOCC2)cc1Cl
IC50 (Estrogen receptor beta): < 23 nM (not active)

Cc1cccc(C(=N)NOC(=O)N2CCOCC2)c1
IC50 [2]: > 69.5 µM (inactive)
EC50 [12]: 2.63 µM (active)
IC50 [3]: > 69.5 µM (inactive)
EC50 [13]: > 60 µM (not active)

COc1cccc2cc(C(=O)NCC3CCCO3)c(=O)oc12 (centres undefined)
IC50 (Prothrombin): > 50 µM (not active)

Cc1cc[n+](CC(=O)c2ccc(NC(=O)c3ccccc3)cc2)cc1
EC50 [1]: > 50 µM (active)

Cc1ccc2nc(N(CCCN(C)C)C(=O)c3ccc(S(=O)(=O)N4CCCCCC4)cc3)sc2c1
EC50 (Streptokinase A): > 150 µM (not active)
AC50 [14]: 30.7 µM (active)
EC50 (Streptococcus): > 150 µM (not active)
EC50 [15]: > 150 µM (not active)
EC50 [12]: 0.125 µM (active)
EC50 [16]: 109 µM (active)
EC50 [13]: > 60 µM (not active)

CCCCc1nc2ccccc2c(NC(=O)CNC(C)(C)C)c1CCC
IC50 (Prothrombin): > 50 µM (not active)

CN(C)CCCn1c(=S)[nH]c2sc3c(c2c1=O)CCCC3
AC50 [6]: > 195 µM (inactive)
AC50 [14]: 5.83 µM (active)

CN1C(=O)/C(=N/OC(=O)c2ccccc2)c2ccccc21
IC50 (Coagulation factor XII): 4.93 µM (active)
IC50 (Prothrombin): 5.05 µM (active)

CC(/C=C(\O)c1ccc(C)o1)=N\c1ccc2c(c1)OCO2
IC50 [5]: > 100 µM (active)

O=C(c1ccc(F)cc1)N1CC(=O)N2[C@H](C1)[C@@H](c1ccc(-c3cccnc3)cc1)[C@@H]2CO
AC50 [17]: 542 nM (active)
AC50 [18]: 786 nM (active)
AC50 [19]: 439 nM (active)
AC50 [20]: 420 nM (active)

COc1ccc(/N=C2\C(=O)Nc3ccccc32)cc1
IC50 [5]: > 100 µM (active)

CSc1nc(-c2ccco2)nn1C(=O)c1ccccc1
IC50 (Prothrombin): 0.082 µM (active)

CCOC(=O)c1cn[nH]c1N
IC50 [5]: > 100 µM (active)

COc1ccc(-c2coc3c(O)c(OC)ccc3c2=O)cc1 [RETUSIN 7-METHYL ETHER]
AC50 (Cytochrome P450 3A4): 31.6 µM (inconclusive)
